Target: T1, hT2R54 (Homo sapiens, UniProt P59534)
T1 construct: expressed in transfected cells; it overexpresses a promiscuous G protein
T1 sequence (P59534 1-338): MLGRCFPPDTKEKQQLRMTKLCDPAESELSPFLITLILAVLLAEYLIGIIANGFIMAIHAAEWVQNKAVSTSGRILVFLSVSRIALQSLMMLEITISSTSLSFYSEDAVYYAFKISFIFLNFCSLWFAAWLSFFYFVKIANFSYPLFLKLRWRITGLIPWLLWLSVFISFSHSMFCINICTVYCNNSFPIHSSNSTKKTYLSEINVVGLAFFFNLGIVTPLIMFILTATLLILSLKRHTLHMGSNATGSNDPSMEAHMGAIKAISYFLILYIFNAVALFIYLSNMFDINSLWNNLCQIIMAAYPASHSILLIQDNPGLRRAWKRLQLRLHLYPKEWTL
Assay: Cell-based assay for measuring hT2R54 inhibition (FLIPR calcium, Fluo4AM, acetaminophen as bitter agonist)
Settings: Table 2; cells stably expressing hT2R54 and a promiscuous G protein; read-out: hT2R54 IC50
Method in brief: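 The readout was FLIPR calcium (Fluo4AM, 10 s baseline, 3 min post-addition) in cells stably carrying hT2R54 plus a promiscuous G protein, with host cells lacking hT2R54 as counter-control. Acetaminophen concentration series were tested with and without set test-compound levels. Half-maximal block of the agonist response gave the EC50/IC50.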

Work on COCc1ccc(C(=O)N2CCN(CC(=O)Nc3cc4c(cc3C(C)=O)OCO4)CC2)o1 [compound 288] yielded an IC50 of 65 nM.
COCc1ccc(C(=O)N2CCN(CC(=O)Nc3cc4c(cc3C(C)=O)OCO4)CC2)s1 [compound 289] showed an IC50 of 21 nM.
For CC(=O)c1cc2c(cc1NC(=O)CN1CCN(C(=O)c3cc(C)c(C)o3)CC1)OCO2 [compound 290], the IC50 was 10 nM.
With CCc1oc(C(=O)N2CCN(CC(=O)Nc3cc4c(cc3C(C)=O)OCO4)CC2)cc1COC [compound 291] the IC50 was 49 nM.
In the case of CC(=O)c1cc2c(cc1NC(=O)CN1CCN(C(=O)c3ccc(Cn4cccn4)o3)CC1)OCO2 [compound 292], the IC50 is reported as 6 nM.
CC(=O)c1cc2c(cc1NC(=O)CN1CCN(C(=O)c3cc(C)no3)CC1)OCO2 [compound 293] showed an IC50 of 8 nM.
COCc1cc(C(=O)N2CCN(CC(=O)Nc3cc4c(cc3C(C)=O)OCO4)CC2)no1 [compound 294] showed an IC50 of 70 nM.
Compound COCc1nc(C(=O)N2CCN(CC(=O)Nc3cc4c(cc3C(C)=O)OCO4)CC2)cs1 [compound 295] has an IC50 of 20 nM.
COCc1nc(C(=O)N2CCN(CC(=O)Nc3cc4c(cc3C(C)=O)OCO4)CC2)co1 [compound 296] showed an IC50 of 53 nM.
CC(=O)c1cc2c(cc1NC(=O)CN1CCN(C(=O)c3coc(C)n3)CC1)OCO2 [compound 297] was tested, and the IC50 was 23 nM.
In the case of CC(=O)c1cc2c(cc1NC(=O)CN1CCN(C(=O)c3conc3C)CC1)OCO2 [compound 298], the IC50 is reported as 91 nM.
Work on CC(=O)c1cc2c(cc1NC(=O)CN1CCN(C(=O)c3ncoc3C)CC1)OCO2 [compound 299] yielded an IC50 of 58 nM.
CC(=O)c1cc2c(cc1NC(=O)CN1CCN(C(=O)c3cc(C)on3)CC1)OCO2 [compound 300] was tested, and the IC50 was 40 nM.
For CC(=O)c1cc2c(cc1NC(=O)CN1CCN(C(=O)c3ncc[nH]3)CC1)OCO2 [compound 301], the IC50 was 20 nM.
CC(=O)c1cc2c(cc1NC(=O)CN1CCN(C(=O)c3cn[nH]c3)CC1)OCO2 [compound 302] gave an IC50 of 800 nM.
Work on CC(=O)c1cc2c(cc1NC(=O)CN1CCN(C(=O)c3c[nH]nn3)CC1)OCO2 [compound 303] yielded an IC50 of 60 nM.
With CC(=O)c1cc2c(cc1NC(=O)CN1CCN(C(=O)c3ncn[nH]3)CC1)OCO2 [compound 304] the IC50 was 80 nM.
In the case of CC(=O)c1cc2c(cc1NC(=O)CN1CCN(C(=O)c3nccn3C)CC1)OCO2 [compound 305], the IC50 is reported as 31 nM.
COc1cc2c(cc1NC(=O)CN1CCN(C(=O)c3nc(C)c[nH]3)CC1)OCO2 [compound 306] showed an IC50 of 77 nM.
In the case of CC(=O)c1cc2c(cc1NC(=O)CN1CCN(C(=O)c3n[nH]cc3C)CC1)OCO2 [compound 307], the IC50 is reported as 90 nM.
CC(=O)c1cc2c(cc1NC(=O)CN1CCN(C(=O)c3nc(C)c[nH]3)CC1)OCO2 [compound 308] showed an IC50 of 9 nM.
CC(=O)c1cc2c(cc1NC(=O)CN1CCN(C(=O)c3c[nH]c(C)n3)CC1)OCO2 [compound 309] gave an IC50 of 200 nM.
CC(=O)c1cc2c(cc1NC(=O)CN1CCN(C(=S)Nc3ccccc3)CC1)OCO2 [compound 310] gave an IC50 of 800 nM.
In the case of COCC(=O)N1CCN(CC(=O)Nc2cc3c(cc2C(=O)OC)OCO3)CC1 [compound 311], the IC50 is reported as 82 nM.
Work on COCCC(=O)N1CCN(CC(=O)Nc2cc3c(cc2C(=O)OC)OCO3)CC1 [compound 312] yielded an IC50 of 157 nM.
In the case of CC(=O)c1cc2c(cc1NC(=O)CN1CCN(C(=O)[C@H]3CCC(=O)O3)CC1)OCO2 [compound 313], the IC50 is reported as 60 nM.
Work on CC(=O)c1cc2c(cc1NC(=O)CN1CCN(C(=O)[C@@H]3CCCO3)CC1)OCO2 [compound 314] yielded an IC50 of 60 nM.
In the case of CC(=O)c1cc2c(cc1NC(=O)CN1CCN(C(=O)[C@H]3CCCO3)CC1)OCO2 [compound 315], the IC50 is reported as 130 nM.
Work on CC(=O)c1cc2c(cc1NC(=O)C(C)N1CCN(C(=O)[C@@H]3CCCO3)CC1)OCO2 (stereo partly drawn) [compound 316] yielded an IC50 of 80 nM.
Work on CC(=O)c1cc2c(cc1NC(=O)C(C)N1CCN(C(=O)[C@H]3CCCO3)CC1)OCO2 (stereo partly drawn) [compound 317] yielded an IC50 of 200 nM.
CC(=O)c1cc2c(cc1NC(=O)C(C)N1CCN(C(=O)C3CCCO3)CC1)OCO2 (stereo not drawn) [compound 318] gave an IC50 of 60 nM.
Work on CC(=O)c1cc2c(cc1NC(=O)C(C)(C)N1CCN(C(=O)C3CCCO3)CC1)OCO2 (stereo not drawn) [compound 319] yielded an IC50 of 1000 nM.
COCC(C(=O)Nc1cc2c(cc1C(C)=O)OCO2)N1CCN(C(=O)[C@H]2CCCO2)CC1 (stereo partly drawn) [compound 320] was tested, and the IC50 was 1600 nM.
With CC(=O)c1cc2c(cc1NC(=O)CN1CCN(C(=O)C3CCN(C)C3)CC1)OCO2 (stereo not drawn) [compound 321] the IC50 was 1000 nM.
Compound CC(=O)c1cc2c(cc1NC(=O)CN1CCN(C(=O)CC3CCCO3)CC1)OCO2 (stereo not drawn) [compound 322] has an IC50 of 70 nM.
Compound CC(=O)c1cc2c(cc1NC(=O)CN1CCN(C(=O)CC3CCOC3)CC1)OCO2 (stereo not drawn) [compound 323] has an IC50 of 200 nM.
Work on CC(=O)c1cc2c(cc1NC(=O)CN1CCN(C(=O)Cc3ccoc3)CC1)OCO2 [compound 324] yielded an IC50 of 80 nM.
COCc1ccc(C(=O)N2CCN(CC(=O)Nc3cc4c(cc3C(C)=O)OCCO4)CC2)cc1 [compound 325] was tested, and the IC50 was 45 nM.
CC(=O)c1cc2c(cc1NC(=O)CN1CCN(C(=O)c3cccnc3)CC1)OCCO2 [compound 326] showed an IC50 of 40 nM.
CC(=O)c1cc2c(cc1NC(=O)CN1CCN(C(=O)c3ccncc3)CC1)OCCO2 [compound 327] was tested, and the IC50 was 70 nM.
For CC(=O)c1cc2c(cc1NC(=O)CN1CCN(C(=O)c3ncn[nH]3)CC1)OCCO2 [compound 328], the IC50 was 60 nM.
In the case of CC(=O)c1cc2c(cc1NC(=O)CN1CCN(C(=O)c3cnn[nH]3)CC1)OCCO2 [compound 329], the IC50 is reported as 50 nM.
CC(=O)c1cc2c(cc1NC(=O)CN1CCN(C(=O)c3ccn[nH]3)CC1)OCCO2 [compound 330] gave an IC50 of 90 nM.
CC(=O)c1cc2c(cc1NC(=O)CN1CCN(C(=O)c3c[nH]c(C)n3)CC1)OCCO2 [compound 331] was tested, and the IC50 was 200 nM.
For CC(=O)c1cc2c(cc1NC(=O)CN1CCN(C(=O)c3nc(C)c[nH]3)CC1)OCCO2 [compound 332], the IC50 was 200 nM.
CC(=O)c1cc2c(cc1NC(=O)CN1CCN(C(=O)c3ccc(C)o3)CC1)OCCO2 [compound 333] showed an IC50 of 80 nM.
For CC(=O)c1cc2c(cc1NC(=O)CN1CCN(C(=O)Cc3ccco3)CC1)OCCO2 [compound 334], the IC50 was 50 nM.
CC(=O)c1cc2c(cc1NC(=O)CN1CCN(C(=O)[C@H]3CCC(=O)O3)CC1)OCCO2 [compound 335] was tested, and the IC50 was 50 nM.
Compound CC(=O)c1cc2c(cc1NC(=O)CN1CCN(C(C)=O)CC1)OCCO2 [compound 336] has an IC50 of 50 nM.
CC(=O)c1cc2c(cc1NC(=O)C(C)N1CCN(C(C)=O)CC1)OCCO2 (stereo not drawn) [compound 337] gave an IC50 of 60 nM.
COCC(=O)N1CCN(CC(=O)Nc2cc3c(cc2C(C)=O)OCCO3)CC1 [compound 338] was tested, and the IC50 was 60 nM.
For COCCOCC(=O)N1CCN(CC(=O)Nc2cc3c(cc2C(C)=O)OCCO3)CC1 [compound 339], the IC50 was 80 nM.
CC(=O)c1cc2c(cc1NC(=O)CN1CCN(C(=O)C3CCCO3)CC1)OCCO2 (stereo not drawn) [compound 340] was tested, and the IC50 was 90 nM.
Work on CC(=O)c1cc2c(cc1NC(=O)CN1CCN(C(=O)[C@@H]3CCCO3)CC1)OCCO2 [compound 341] yielded an IC50 of 1800 nM.
In the case of CC(=O)c1cc2c(cc1NC(=O)CN1CCN(C(=O)[C@H]3CCCO3)CC1)OCCO2 [compound 342], the IC50 is reported as 70 nM.
For CC(=O)c1cc2c(cc1NC(=O)CN1CCN(C(=O)C3CCCCO3)CC1)OCCO2 (stereo not drawn) [compound 343], the IC50 was 30 nM.
CC(=O)c1cc2c(cc1NC(=O)CN1CCN(C(=O)CC3CCOC3)CC1)OCCO2 (stereo not drawn) [compound 344] showed an IC50 of 50 nM.
CC(=O)c1cc2c(cc1NC(=O)CN1CCN(C(=O)CN3CCCC3)CC1)OCCO2 [compound 345] was tested, and the IC50 was > 10000 nM.
Work on COC(=O)c1cc2c(cc1NC(=O)CN1CCN(C(=O)c3cn(C)nn3)CC1)OCO2 [compound 346] yielded an IC50 of 23 nM.
Work on COCc1ccc(C(=O)N2CCN(CC(=O)Nc3cc4c(cc3C(=O)OC)OCO4)CC2)o1 [compound 347] yielded an IC50 of 83 nM.
COC(=O)c1cc2c(cc1NC(=O)CN1CCN(C(C)=O)CC1)OCO2 [compound 348] was tested, and the IC50 was 166 nM.
CCCC(=O)N1CCN(CC(=O)Nc2cc3c(cc2C(=O)OC)OCO3)CC1 [compound 349] gave an IC50 of 244 nM.
Work on COC(=O)c1cc2c(cc1NC(=O)CN1CCN(C(=O)C3CCCO3)CC1)OCO2 (stereo not drawn) [compound 350] yielded an IC50 of 299 nM.
Work on COC(=O)c1cc2c(cc1NC(=O)CN1CCN(C(=O)CC3CCCO3)CC1)OCO2 (stereo not drawn) [compound 351] yielded an IC50 of 439 nM.
Work on COC(=O)c1cc2c(cc1NC(=O)CN1CCN(C(=O)CN3CCOCC3)CC1)OCO2 [compound 352] yielded an IC50 of 740 nM.
In the case of COC(=O)c1cc2c(cc1NC(=O)CN1CCN(C(C)=O)CC1)CCCC2 [compound 353], the IC50 is reported as 2100 nM.
COc1cc2c(cc1NC(=O)CN1CCN(C(=O)C3CCCO3)CC1)CCC2 (stereo not drawn) [compound 354] showed an IC50 of 1900 nM.
COc1cc2c(cc1NC(=O)CN1CCN(C(C)=O)CC1)CCC2 [compound 355] was tested, and the IC50 was 2500 nM.
Compound COCc1cccc(C(=O)N2CCN(CC(=O)Nc3cc4c(cc3OC)OCO4)CC2)c1 [compound 356] has an IC50 of 156 nM.
Work on COCc1ccc(C(=O)N2CCN(CC(=O)Nc3cc4c(cc3OC)OCO4)CC2)s1 [compound 357] yielded an IC50 of 208 nM.
Compound COCc1ccc(C(=O)N2CCN(CC(=O)Nc3cc4c(cc3OC)OCO4)CC2)cc1 [compound 358] has an IC50 of 148 nM.
COCc1nc(C(=O)N2CCN(CC(=O)Nc3cc4c(cc3OC)OCO4)CC2)cs1 [compound 359] was tested, and the IC50 was 261 nM.
COc1cc2c(cc1NC(=O)CN1CCN(C(=O)c3cn(C)nn3)CC1)OCO2 [compound 360] gave an IC50 of 735 nM.
With COCc1nc(C(=O)N2CCN(CC(=O)Nc3cc4c(cc3OC)OCO4)CC2)co1 [compound 361] the IC50 was 546 nM.
Work on COc1cc2c(cc1NC(=O)CN1CCN(C(=O)c3ncoc3C)CC1)OCO2 [compound 362] yielded an IC50 of 567 nM.

Reference: US12295396B2, “Antagonists of T2R54 and compositions and uses thereof” (Firmenich Incorporated, priority 2018, dated 2025)
